Test results from US9241954B2, “Lipopolysaccharide of ochrobactrum intermedium and their use as immunostimulant of mammalians” (LABORATORIOS OVEJERO, S.A., priority 2009, dated 2016).

How the values were obtained:
severe sepsis patients = details: cited from earlier work
[1] = tested on: CD8 and CD4 T-cells (spleen cells)

Row | Molecule | proinflammatory cytokine levels (severe sepsis patients; human, in vivo) | mortality (severe sepsis patients; severe sepsis patients (TAK-242: subgroup with high IL-6 levels)) | toxicity for CD8 and CD4 T-cells / spleen cells [1]
1 | CCOC(=O)C1=CCCC[C@H]1S(=O)(=O)Nc1ccc(F)cc1Cl [TAK-242] | decrease proinflammatory cytokine levels | decrease mortality | 
2 | Lipopolysaccharide from Ochrobactrum intermedium strain LMG3306 [IM] |  |  | no toxic at all
